Patent US5286715A, “New adamantyl comprising tripeptides, derivatives and hydrochlorides thereof, their preparation and use” (priority 1989, dated 1994)
Where “and” joins values, the source holds several entries; their conditions need not be identical. Equal entries are not always repeated. Where two headings read alike, the source gives them in different places.

Columns and labels:
Influenza A virus H1N1 = format: cell-based; settings: MDCK cells 10^4 cells/100 μL/well
MCa mammary carcinoma [1] = assay: Survival time of mice bearing MCa mammary carcinoma; format: in vivo, CBA mice; settings: hydrochloride
Protocol: (§1) ^a Groups of 7 CBA mice, inoculated i.m. into the calf of the left
(§2) hind leg with 10^6 viable MCa mammary carcinoma cells on day 0, were
(§3) given i.v. the test compounds (saline for controls) on days 1, 5, 9, 13.
^b Survival time was recorded as the number of days of survival of
each mouse from the tumor implantation.

Influenza A virus H3N2 = format: cell-based; settings: MDCK cells 10^4 cells/100 μL/well
melanoma B-16 = assay: Lung metastases development in mice bearing melanoma B-16; format: in vivo, C57BL/6 mice; settings: for Animals without metastases % / Number of metastatic nodules/mouse % inhibition / Number of metastatic nodules/mouse mean (min-max): counted day 30; for reduction of lung metastases to a fraction of the number in untreated control groups: i.v. administration on day 4
Protocol: ^a Groups of 8 C57BL/6 mice (5-6 months old), inoculated i.v. with
10^5 melanoma B16 cells on day 0, were given i.v. 25 mg/kg of each
test compound (saline for controls) on days 4 or 7.
Macroscopically detectable lung metastases were counted on day 30.

MCa mammary carcinoma [2] = assay: Intramuscular tumor growth in mice bearing MCa mammary carcinoma; format: in vivo, CBA mice; settings: for Primary tumor weight % Inhibition / Primary tumor weight mg ± S.E.: 24 hrs after last treatment, hydrochloride
Protocol: The antitumor activity was examined in CBA mice bearing the MCa mammary carcinoma tumor or in C57BL mice inoculated with B-16 melanoma. The doses tested, 5 and 25 mg/kg bodyweight/day, given i.v. on days 1, 5, 9, 13 after tumor implantation were devoid of severe toxicity.
as §1, §2, §3
^b Evaluated 24 hrs after the last treatment. The tumor growth was
estimated by calliper measurements taking tumor density equal to 1 and
using the formula: tumor weight = (π/6)xA^2 xB, with A and B as tw
perpendicular axes (A<B).

anti-HgG antibodies = assay: Immunoadjuvant activity in rabbits immunized with human gamma globulin (HgG); format: in vivo, New Zealand rabbits; settings: 0.3 mg i.v. in PBS three days after immunogen; versus controls immunized with HgG in incomplete Freund's adjuvant
Protocol: The immunostimulating property of Isomer 1 and Isomer 2 of D,L(2-adamantyl-)-glycyl-L-alanyl-D-isoglutamine was tested in rabbits immunized with human gamma globulin (HgG).
New Zealand rabbits (five per group) were immunized s.c. with 0.5 mg of HgG in incomplete Freund's adjuvant. Isomer 1/Isomer 2 (0.3 mg) was administered i.v. in phosphate buffered saline (PBS) three days after immunogen. The formation of anti-HgG antibodies was followed by a solid phase radioimmunoassay method to provide a quantitative measure of anti-HgG antibodies in rabbit sera. Serum antibody content (mg/mL) was determined by parallel line bioassay method, using >>SIGMA<< antihuman IgG (whole molecule) as a standard.

MCa mammary carcinoma [3] = assay: Lung metastases development in mice bearing MCa mammary carcinoma; format: in vivo, CBA mice; settings: for Animals without macroscopically detectable lung metastases % / lung metastases % Inhibition / lung metastases, mean: 25 mg/kg i.v. days 1, 5, 9, 13, evaluated day 23, hydrochloride
Protocol: | ^a Groups of 7 CBA mice, inoculated i.m. into the calf of the left | hind leg with 10^6 viable MCa mammary carcinoma cells on day 0, were | given i.v. 25 mg/kg of each test compound (saline for controls) on days 1 | 5, 9, 13. Lung metastases evaluation was performed on the freshly removed | lung tissue immediately after killing on day 23 by using a low power | stereo microscope. | ^b Animals without macroscopically detectable lung metastatic nodules

[4] = 25 mg/kg i.v. on day +4, hydrochloride
[5] = 25 mg/kg i.v. on day +7, hydrochloride

Row | Structure (SMILES) | MIC (minimum inhibitory concentration) (Influenza A virus H1N1; hydrochloride) | Survival time % Increase (MCa mammary carcinoma [1]; 5 mg/kg i.v. days 1, 5, 9, 13) | Survival time (days) mean (min-max) (MCa mammary carcinoma [1]; 5 mg/kg i.v. days 1, 5, 9, 13) | Survival time % Increase (MCa mammary carcinoma [1]; 25 mg/kg i.v. days 1, 5, 9, 13) | Survival time (days) mean (min-max) (MCa mammary carcinoma [1]; 25 mg/kg i.v. days 1, 5, 9, 13) | MIC (minimum inhibitory concentration) (Influenza A virus H3N2; hydrochloride) | Animals without metastases % (melanoma B-16; 25 mg/kg i.v. on day +4) | Number of metastatic nodules/mouse % inhibition (melanoma B-16; [4]) | Number of metastatic nodules/mouse mean (min-max) (melanoma B-16; [4]) | Animals without metastases % (melanoma B-16; [5]) | Number of metastatic nodules/mouse % inhibition (melanoma B-16; [5]) | Number of metastatic nodules/mouse mean (min-max) (melanoma B-16; [5]) | reduction of lung metastases to a fraction of the number in untreated control groups (melanoma B-16) | Primary tumor weight % Inhibition (MCa mammary carcinoma [2]; 5 mg/kg i.v. days 1, 5, 9, 13) | Primary tumor weight mg ± S.E. (MCa mammary carcinoma [2]; 5 mg/kg i.v. days 1, 5, 9, 13) | Primary tumor weight % Inhibition (MCa mammary carcinoma [2]; 25 mg/kg i.v. days 1, 5, 9, 13) | Primary tumor weight mg ± S.E. (MCa mammary carcinoma [2]; 25 mg/kg i.v. days 1, 5, 9, 13) | Animals without macroscopically detectable lung metastases % (MCa mammary carcinoma [3]) | lung metastases % Inhibition (MCa mammary carcinoma [3]) | lung metastases, mean (MCa mammary carcinoma [3]) | other results
1 | C[C@H](NC(=O)C(N)C1C2CC3CC(C2)CC1C3)C(=O)N[C@H](CCC(=O)O)C(N)=O.Cl (single isomer, unassigned; isomer 2) [Isomer 2, D,L-(2-Adamantyl-)-glycyl-L-alanyl-D-isoglutamine hydrochloride] | 100 µg | +22% | 27.4 (18-40) days | +32% | 29.7 (18-40) days | 50 µg | 37% | -69% | 0.97 (0-2) | 28% | -48% | 1.38 (0-4) | 1/3 | -44% | 1076 ± 132 mg | -19% | 1559 ± 177 mg | 57.1% and 57% | -76% | 1.14 | reduction of the volume of the intramuscular tumor (MCa mammary carcinoma [2]; 5 mg/kg bodyweight/day i.v., 24 hours after the last day of treatment): 44%; Antibody formation against HgG (anti-HgG antibodies): significantly enhanced; spontaneous dissemination of tumor to the lungs, % of controls (MCa mammary carcinoma [3]; 25 mg/kg bodyweight/day i.v.): 24 % of controls
2 | NC12CC3CC(CC(C3)C1)C2 [Symmetrel, amantadine, reference compound] | – | – | – | – | – | – | – | – | – | – | – | – | – | – | – | – | – | – | – | – | MIC (minimum inhibitory concentration) (Influenza A virus H1N1): < 12.5 µg; MIC (minimum inhibitory concentration) (Influenza A virus H3N2): < 12.5 µg
3 | C[C@H](NC(=O)C(N)C1C2CC3CC(C2)CC1C3)C(=O)N[C@H](CCC(=O)O)C(N)=O.Cl (single isomer, unassigned; isomer 1) [Isomer 1, D,L-(2-Adamantyl-)-glycyl-L-alanyl-D-isoglutamine hydrochloride] | 12.5 µg | +10% | 24.6 (18-31) days | +13% | 25.4 (15-40) days | > 200 µg | 37% | -68% | 1.0 (0-2) | 37% | -76% | 0.64 (0-1) | 1/3 | -28% | 1387 ± 224 mg | -21% | 1522 ± 182 mg | 14.3% | -43% | 2.71 | –
